Patent US9456601B2, “Pesticides based on vicinal diols” (priority 2001, dated 2016)
Where two headings read alike, the source gives them in different places.

Key:
[1] = test system: house flies; assay type: in vivo, Musca domestica
Source text: A further example of the use of the compounds of the present invention is shown by testing decane-1,2-diol against house flies in a standard industry protocol for insecticides.

[2] = test system: human body louse (Pediculus humanus); test: LC50 tests against the human body louse; details: for Potency index: LC50 value compared with that of 1,2-decanediol (=100%); for LC50: read-out: LC50 value; for LC50 / LC50 value: tests against lice (Pediculus humanus)
[3] = test system: house dust mite Dermatophagoides pteronyssinus; test: House dust mite immersion test, mortality; assay type: in vivo
Source text: The utility of the vicinal diols is further illustrated by the results of experiments against the house dust mite Dermatophagoides pteronyssinus according to accepted industry protocols. Mites were sealed in a cotton envelope and briefly immersed (5 seconds) in dilute solutions (2.5%) of selected diols. The mites were examined one hour after immersion and mortality calculated. The results are shown in Table 3 below with comparative results for a proprietary carpet shampoo, permethrin insecticide and water (as controls).

[4] = test system: lice; test: Immersion of lice in test formulations, mortality; assay type: in vivo; details: immersed for a few seconds and blotted dry
Source text: (§1) Vicinal diols are readily formulated in aqueous systems using non-toxic co-solvents such as isopropyl alcohol or by use of surfactants such as Tween®. This makes them eminently suitable for inclusion into many household or industrial, pesticidal or cleansing products. In particular they can be incorporated into pharmaceutical preparations for use on humans or animals. The treatment of lice and cockroaches with formulations containing 1,2-octanediol or 1,2-decanediol is tabulated in Table 4 along with control results for the solvent systems employed. In a procedure following standard industry protocols the subject animals were immersed for a few seconds in the test formulations and blotted dry. Mortality after 24 hrs was measured for the lice, after 1 hr for the cockroaches.

[5] = test system: cockroaches; test: Immersion of cockroaches in test formulations, mortality; assay type: in vivo; details: immersed for a few seconds and blotted dry
Source text: as §1

[6] = test system: lice; test: Egg-laying activity of treated lice; assay type: in vivo; details: FIG. 2
Source text: FIG. 2 is a further graph illustrating a relationship between diol chain length and egg-laying activity of treated lice.

[7] = test system: human body louse (Pediculus humanus); details: in vivo

Row | Compound | Potency index [2] | LC50 [2] [mM] | LC50 value [2] | other results
1 | CCCCCCCCC(O)CO (racemic) [1,2-Decanediol] | 100% | 12 |  | Mortality ([1]; in vivo): More than 80%; pediculicidal activity (in words) ([2]; against lice): significantly superior to 1,3-decanediol; Mortality ([3]; in vivo): 95%
2 | CC1(C)C(C=C(Cl)Cl)C1C(=O)OCc1cccc(Oc2ccccc2)c1 (stereo not drawn) [0.25% Permethrin, Permethrin] |  |  |  | Mortality ([3]; mites in cotton envelope immersed 5 seconds, diols as 2.5% solutions, examined one hour after immersion): 100%; Lice mortality after 24 hr [4]: 100%; Cockroach mortality after 1 hr [5]: 100%
3 | CCCC(O)C(O)CO (stereo not drawn) [1,2,3-Hexanetriol] | Not effective |  | Not calculable | 
4 | OCCCCC(O)CO (stereo not drawn) [1,2,6-Hexanetriol] | Not effective |  | Not calculable | 
5 | CCC(O)CO (stereo not drawn) [1,2-Butanediol] | Not effective |  | >700 mmol | 
6 | CCCCC(O)CO (stereo not drawn) [1,2-Hexanediol] | 6% |  | >200 mmol | 
7 | CCCCCCC(O)CO (stereo not drawn) [1,2-Octanediol] | 30% | 40 |  | prevention of egg laying (in words) [6]: especially efficacious in the prevention of egg laying; Mortality ([3]; in vivo): 65%
8 | CC(O)CCO (stereo not drawn) [1,3-Butanediol] | Not effective |  | >2000 mmol | 
9 | CCCCCCCC(O)CCO (stereo not drawn) [1,3-Decanediol] | 30% | 40 |  | 
10 | CCCCCC(O)CCO (stereo not drawn) [1,3-Octanediol] | Not effective |  | >400 mmol | 
11 | CC(O)CCCCO (stereo not drawn) [1,5-Hexanediol] | Not effective |  | Not calculable | 
12 | OCCCCCCO [1,6-Hexanediol] | Not effective |  |  | LC50 value [7]: Not calculable
13 | CCCCCCCCCCO [1-Decanol] | 32% | 35 |  | 
14 | CC(O)CCC(C)O (stereo not drawn) [2,5-Hexanediol] | Not effective |  | Not calculable | 
15 | CCCCCCCCC(C)O (stereo not drawn) [2-Decanol] | 34% | 37 |  | 
16 | CCCC(O)C(CC)CO (stereo not drawn) [2-Ethyl-1,3-hexanediol] | 20% |  |  | LC50 [7]: 60 mM
17 | CCCCC(CC)CO (stereo not drawn) [2-Ethyl-1-hexanol] | 4% |  |  | LC50 value [7]: 300 mmol
18 | CCCCCCCC(CC)C(O)CO (stereo not drawn) [3-Ethyl-1,2-decanediol] | Not effective |  | Not calculable | 
19 | CCCCCCCC(CC)CCO (stereo not drawn) [3-Ethyl-1-decanol] | 20% | 62 |  | 
20 | CCCCCCCCC(CCCCCCC)C(O)CO (stereo not drawn) [3-Octyl-1,2-decanediol] | 12% | 97 |  | 
21 | CCCCCCC(O)CCC (stereo not drawn) [4-Decanol] | 6% |  | 183 mmol | 
22 | C=CCCCCCCCCO [9-Decene-1-ol] | 36% | 33 |  | 
23 | OCCCCCCCCCCO [decane-1,10-diol] |  |  |  | insecticidal activity (in words) ([1]; house flies): did not exhibit insecticidal activity
